Results reported in article PMC10855879, “Formulation Studies with Cyclodextrins for Novel Selenium NSAID Derivatives” (International Journal of Molecular Sciences, 2024).
Converted amounts (≈) assume the structure as drawn. “Also recorded” adds a separate entry of the source.

test system: colon cancer; assay: not given; set-up: method as in PMID 37759969; details: in vitro and in vivo; cited from earlier work

In the case of CC(C)Cc1ccc(C(C)C(=O)[Se][Se]C(=O)C(C)c2ccc(CC(C)C)cc2)cc1 (centres unmarked) [II.5], the “Anticancer properties (in words)” value is listed as “potent anticancer properties”.

test system: not listed separately; assay: Water solubility by quantitative 1H-NMR in D2O, alone or with cyclodextrin; assay type: physicochemical; details: 25 °C, water, thermodynamic from solid; D2O, 298 K, compound alone, dimethyl sulfone internal standard; read-out: Water Solubility, Compound
Protocol: For all the Se-NSAID derivatives, the formation of inclusion complexes either with β- or γ-CDs was evaluated by quantitative proton nuclear magnetic resonance (^1H-NMR) spectroscopy (Figures S1–S40 in Supplementary Materials). The election for such CDs is based on the fact that β-CD is one of the most frequently used CDs for encapsulating NSAIDs. Additionally, given the size of the studied molecules, a larger CD such as γ-CDs was also evaluated.
The experimental formation of inclusion complexes with either β-CD or γ-CD was evaluated via quantitative ^1H-NMR spectroscopy. This method is based on the consideration that the integration for a given signal that is selected as a marker for a given compound is proportional to its concentration. Consequently, solutions of 0.5 mL in D2O (≥99.85% in deuterated component) with an excess of each compound were prepared, along with either 4 mg of dimethyl sulfone (as internal standard) or with the corresponding CD at 10 mM. ^1H-NMR spectra were recorded at 298 K on a Bruker Avance Neo at a proton resonance frequency of 400 MHz. The solubilities were calculated considering the ratio between the area of the peaks belonging to the internal standard or the CDs and the different hydrogens of the Se-NSAID derivatives.

First: COc1ccc2c(c1)c(CC(=O)[Se]CC(=O)O)c(C)n2C(=O)c1ccc(Cl)cc1 [I.4a]
Second: COC(=O)C[Se]C(=O)Cc1c(C)n(C(=O)c2ccc(Cl)cc2)c2ccc(OC)cc12 [I.4b]
The solubility of the first is 1.9-fold higher: 22.4 µM (≈ 10.7 µg/mL) for the first, 12 µM (≈ 5.91 µg/mL) for the second.

First: COc1ccc2c(c1)c(CC(=O)[Se][Se]C(=O)Cc1c(C)n(C(=O)c3ccc(Cl)cc3)c3ccc(OC)cc13)c(C)n2C(=O)c1ccc(Cl)cc1 [II.2]
Second: COc1ccc2c(c1)c(CC(=O)[Se]CC#N)c(C)n2C(=O)c1ccc(Cl)cc1 [I.4d]
The solubility of the first is 150-fold lower: 0.132 µM (≈ 0.111 µg/mL) for the first, 20 µM (≈ 9.2 µg/mL) for the second.

Going from COc1ccc2c(c1)c(CC(=O)[Se]CCC#N)c(C)n2C(=O)c1ccc(Cl)cc1 [I.4e] to COc1ccc2cc(C(C)C(=O)[Se]CCC#N)ccc2c1 (centres unmarked) [I.3e], the solubility rises from 5.72 µM (≈ 2.71 µg/mL) to 9.7 µM (≈ 3.36 µg/mL) (1.7-fold).

Going from CC(=O)Oc1ccccc1C(=O)[Se][Se]C(=O)c1ccccc1OC(C)=O [II.1] to CC(C(=O)[Se][Se]C(=O)C(C)c1cccc(C(=O)c2ccccc2)c1)c1cccc(C(=O)c2ccccc2)c1 (centres unmarked) [II.4], the solubility falls from 8.43 µM (≈ 4.08 µg/mL) to 5.57 µM (≈ 3.52 µg/mL) (1.5-fold).

Compared with COc1ccc2cc([C@H](C)C(=O)[Se][Se]C(=O)[C@@H](C)c3ccc4cc(OC)ccc4c3)ccc2c1 [II.3], CC(C)Cc1ccc(C(C)C(=O)[Se][Se]C(=O)C(C)c2ccc(CC(C)C)cc2)cc1 (centres unmarked) [II.5] is 35-fold higher in solubility: 0.605 µM (≈ 0.354 µg/mL) for the first, 21.2 µM (≈ 11.4 µg/mL) for the second.

same assay, conditions: D2O with β-cyclodextrin, 25 °C, aqueous with cosolvent or surfactant or cyclodextrin, thermodynamic from solid; D2O, 298 K, β-CD 10 mM; read-out: Water Solubility, Compound + β-CD

First: COc1ccc2c(c1)c(CC(=O)[Se]CC(=O)O)c(C)n2C(=O)c1ccc(Cl)cc1 [I.4a]
Second: COC(=O)C[Se]C(=O)Cc1c(C)n(C(=O)c2ccc(Cl)cc2)c2ccc(OC)cc12 [I.4b]
The solubility of the first is 2.8-fold lower: 56.5 µM for the first, 157 µM for the second.

First: COc1ccc2c(c1)c(CC(=O)[Se][Se]C(=O)Cc1c(C)n(C(=O)c3ccc(Cl)cc3)c3ccc(OC)cc13)c(C)n2C(=O)c1ccc(Cl)cc1 [II.2]
Second: COc1ccc2c(c1)c(CC(=O)[Se]CC#N)c(C)n2C(=O)c1ccc(Cl)cc1 [I.4d]
The solubility of the first is 5.7-fold lower: 7.96 µM for the first, 45.3 µM for the second.

Compared with COc1ccc2c(c1)c(CC(=O)[Se]CCC#N)c(C)n2C(=O)c1ccc(Cl)cc1 [I.4e], COc1ccc2cc(C(C)C(=O)[Se]CCC#N)ccc2c1 (centres unmarked) [I.3e] is 22-fold higher in solubility: 45.5 µM for the first, 992 µM for the second.

First: CC(=O)Oc1ccccc1C(=O)[Se][Se]C(=O)c1ccccc1OC(C)=O [II.1]
Second: CC(C(=O)[Se][Se]C(=O)C(C)c1cccc(C(=O)c2ccccc2)c1)c1cccc(C(=O)c2ccccc2)c1 (centres unmarked) [II.4]
The solubility of the first is 3.7-fold higher: 101 µM for the first, 27 µM for the second.

Compared with COc1ccc2cc([C@H](C)C(=O)[Se][Se]C(=O)[C@@H](C)c3ccc4cc(OC)ccc4c3)ccc2c1 [II.3], CC(C)Cc1ccc(C(C)C(=O)[Se][Se]C(=O)C(C)c2ccc(CC(C)C)cc2)cc1 (centres unmarked) [II.5] is 25000-fold higher in solubility: 0.219 µM for the first, 5420 µM for the second.

same assay, conditions: D2O with γ-cyclodextrin, 25 °C, aqueous with cosolvent or surfactant or cyclodextrin, thermodynamic from solid; D2O, 298 K, γ-CD 10 mM; read-out: Water Solubility, Compound + γ-CD

COc1ccc2c(c1)c(CC(=O)[Se]CC(=O)O)c(C)n2C(=O)c1ccc(Cl)cc1 [I.4a] and COC(=O)C[Se]C(=O)Cc1c(C)n(C(=O)c2ccc(Cl)cc2)c2ccc(OC)cc12 [I.4b] are within 1.5-fold of each other in solubility: 52.4 µM for the first, 43.9 µM for the second.

First: COc1ccc2c(c1)c(CC(=O)[Se][Se]C(=O)Cc1c(C)n(C(=O)c3ccc(Cl)cc3)c3ccc(OC)cc13)c(C)n2C(=O)c1ccc(Cl)cc1 [II.2]
Second: COc1ccc2c(c1)c(CC(=O)[Se]CC#N)c(C)n2C(=O)c1ccc(Cl)cc1 [I.4d]
The solubility of the first is 4.4-fold lower: 7.6 µM for the first, 33.7 µM for the second.

Compared with COc1ccc2c(c1)c(CC(=O)[Se]CCC#N)c(C)n2C(=O)c1ccc(Cl)cc1 [I.4e], COc1ccc2cc(C(C)C(=O)[Se]CCC#N)ccc2c1 (centres unmarked) [I.3e] is 6.5-fold higher in solubility: 42.1 µM for the first, 273 µM for the second.

CC(=O)Oc1ccccc1C(=O)[Se][Se]C(=O)c1ccccc1OC(C)=O [II.1] and CC(C(=O)[Se][Se]C(=O)C(C)c1cccc(C(=O)c2ccccc2)c1)c1cccc(C(=O)c2ccccc2)c1 (centres unmarked) [II.4] are within 1.5-fold of each other in solubility: 15.1 µM for the first, 17.7 µM for the second.

Going from COc1ccc2cc([C@H](C)C(=O)[Se][Se]C(=O)[C@@H](C)c3ccc4cc(OC)ccc4c3)ccc2c1 [II.3] to CC(C)Cc1ccc(C(C)C(=O)[Se][Se]C(=O)C(C)c2ccc(CC(C)C)cc2)cc1 (centres unmarked) [II.5], the solubility rises from 6.14 µM to 7500 µM (1200-fold).

same assay, conditions: complexes versus compounds alone

With COc1ccc2cc(C(C)C(=O)[Se]CCC#N)ccc2c1 (centres unmarked) [I.3e] the “Improvement of water solubility after exposure to β- and γ-CD (in words)” value was “remarkable improvement; also recorded: remarkable increase; also recorded: almost two orders of magnitude”.
With CC(C)Cc1ccc(C(C)C(=O)[Se][Se]C(=O)C(C)c2ccc(CC(C)C)cc2)cc1 (centres unmarked) [II.5] the “Improvement of water solubility after exposure to β- and γ-CD (in words)” value was “remarkable improvement; also recorded: remarkable increase; also recorded: almost two orders of magnitude”.

same assay, conditions: versus compound alone, D2O

With CC(C)Cc1ccc(C(C)C(=O)[Se][Se]C(=O)C(C)c2ccc(CC(C)C)cc2)cc1 (centres unmarked) [II.5] the “Increase in water solubility with β-CD” value was “up to 250 fold”.

With CC(C)Cc1ccc(C(C)C(=O)[Se][Se]C(=O)C(C)c2ccc(CC(C)C)cc2)cc1 (centres unmarked) [II.5] the “Increase in water solubility with γ-CD” value was at most 350 fold.
